Results: patent publication US20240174644A1, “QUINOXALINE UREA INHIBITORS OF IKK-BETA AND NF-KB” (BOARD OF REGENTS OF THE UNIVERSITY OF NEBRASKA, priority 2021, published 2024)

Each compound was assayed on MM1S cells (assay: Growth inhibition assay in MM1S cells (Presto blue)). Conditions: Homo sapiens, MM1.S, 120 h, MM1S cells (multiple myeloma model), 5-day incubation, triplicate.
Format: cell-based
Description: MM1S cells were seeded (20K cells/well) and increasing concentrations of the inhibitors were added to these cells in triplicate. The plates were incubated for 5 -days after which Presto blue (544/590 ex/em wavelengths) was added and plates read after additional 15 min incubation at 37° C. The IC50 values were derived by curve fitting the data.

SMILES | IC50
Cn1cc(-c2cnc3ccc(NC(=O)Nc4ccc(F)c(Br)c4)cc3c2)cn1 [Compound 6, 1-(3-Bromo-4-fluorophenyl)-3-(3-(1-methyl-1H-pyrazol-4-yl)quinolin-6-yl)urea] | 10.6 ± 0.4 µM
Cn1cc(-c2cnc3ccc(NC(=O)Nc4cccc(Br)c4)cc3n2)cn1 [Compound 2] | 2.83 ± 0.09 µM
Cn1cc(-c2ccc3ccc(NC(=O)Nc4ccc(F)c(Br)c4)cc3n2)cn1 [Compound 5] | 5.56 ± 0.66 µM
Cn1cc(-c2cnc3ccc(NC(=O)Cc4ccc(F)c(Br)c4)cc3n2)cn1 [Compound 4] | 4.67 ± 0.09 µM
Cn1ccc(-c2cnc3ccc(NC(=O)Nc4ccc(F)c(Br)c4)cc3n2)c1 [Compound 7, 1-(3-Bromo-4-fluorophenyl)-3-(3-(1-methyl-1 H-pyrrol-3-yl)quinoxalin-6-yl)urea] | 2.85 ± 0.09 µM

Now from value to compound:

IC50 | SMILES
5.38 ± 0.13 µM | Cn1cc(-c2cnc3ccc(NC(=O)Nc4ccc(F)c(C(F)(F)F)c4)cc3n2)cn1 [Compound 8]
5.43 ± 0.16 µM | Cn1cc(-c2cnc3ccc(NC(=O)Nc4ccc(F)c(Br)c4)cc3n2)cn1 [Compound 1]
0.75 ± 0.01 µM | Cn1cc(-c2cnc3ccc(NC(=O)Nc4ccc(F)c(C(F)(F)F)c4F)cc3n2)cn1 [Compound 9]
> 20 µM | Cn1cc(-c2cnc3ccc(NC(=O)Nc4ccc(F)cc4)cc3n2)cn1 [Compound 3, 1-(4-fluorophenyl)-3-(3-(1-methyl-1H-pyrazol-4-yl)quinoxalin-6-yl)urea]

Each compound was assayed on caspase 3/7 (assay: Caspase 3/7 activation assay in MM1S cells (Apo-One homogeneous caspase 3/7 assay)). Conditions: inhibitor 10 μM, 24 h, fold change relative to the DMSO control.
Format: cell-based
Description: MM1 S cells were seeded (25K cells/well) and inhibitors (10 μM) were added to these cells in triplicate. The plates were incubated for 24 h. Under multiplexing conditions, the cell viability using Alamar Blue assay and caspase activity using Apo-One homogeneous caspase 3/7 assay was determined. Data represented as fold change relative to the DMSO control.

SMILES | Caspase 3/7 activation
Cn1cc(-c2cnc3ccc(NC(=O)Nc4ccc(F)c(Br)c4)cc3c2)cn1 [Compound 6, 1-(3-Bromo-4-fluorophenyl)-3-(3-(1-methyl-1H-pyrazol-4-yl)quinolin-6-yl)urea] | 1.36 ± 0.04 fold change
Cn1cc(-c2cnc3ccc(NC(=O)Nc4cccc(Br)c4)cc3n2)cn1 [Compound 2] | 1.06 ± 0.03 fold change
Cn1cc(-c2cnc3ccc(NC(=O)Nc4ccc(F)c(C(F)(F)F)c4)cc3n2)cn1 [Compound 8] | 1.96 ± 0.05 fold change
Cn1ccc(-c2cnc3ccc(NC(=O)Nc4ccc(F)c(Br)c4)cc3n2)c1 [Compound 7, 1-(3-Bromo-4-fluorophenyl)-3-(3-(1-methyl-1 H-pyrrol-3-yl)quinoxalin-6-yl)urea] | 1.51 ± 0.01 fold change
Cn1cc(-c2cnc3ccc(NC(=O)Nc4ccc(F)c(C(F)(F)F)c4F)cc3n2)cn1 [Compound 9] | 9.79 ± 2.47 fold change
Cn1cc(-c2cnc3ccc(NC(=O)Nc4ccc(F)cc4)cc3n2)cn1 [Compound 3, 1-(4-fluorophenyl)-3-(3-(1-methyl-1H-pyrazol-4-yl)quinoxalin-6-yl)urea] | 1.03 ± 0.06 fold change
